From article PMC8129133, “Polymer-free corticosteroid dimer implants for controlled and sustained drug delivery” (Nature Communications, 2021)
Values after ≈ are worked out from the molar mass of the structure shown. Values joined by “and” are separate entries in the source; they are usually repeats but may differ in a detail not shown here. Equal values may be shown once.

Legend:
[1] = 3-point bend test of extruded rods; type: physicochemical; conditions: Fig 2c
From the text: Extruded rods of ~300 µm diameter and 8 mm length (6 mm span on testing apparatus) were subjected to a 3-point bend test using an Instron uniaxial servo-hydraulic testing machine (Instron Model 8501) with a 2.5 N load cell and cross-head speed of 0.8 mm/min.

[2] = In vitro half-life / degradation of solubilized Dex-TEG-Dex in FBS; type: in vitro ADME
Procedure: Dex-TEG-Dex was dissolved in acetone at 10 mg/ml and added to 100% FBS to obtain a final concentration of 10 µg/ml and incubated at 37 °C with constant agitation at 115 rpm (VWR). At experimental timepoints of t = 0, 0.5, 1, 2, 3, 4, 5, 6, and 24 h, sample was removed and protein was precipitated with acetonitrile. Samples were vortexed and centrifuged to separate extracted drug from the precipitated protein. The supernatant was then analyzed by HPLC as described above.

[3] = system: vascular endothelial growth factor (VEGF) induced blood-retinal barrier breakdown; assay: Rabbit pharmacodynamics, VEGF-induced vascular leakage; type: in vivo, Dutch Belted rabbits
Procedure: Pharmacodynamics. Rabbit pharmacodynamics studies were performed at Absorption Systems California (San Diego, CA, USA). All studies were conducted in compliance with relevant ethical regulations, including the USDA Animal Welfare Act (i.e., relevant sections of Section 9, Part 1, 2, and 3 of the Code of Federal Regulations) and in compliance with Absorption Systems’ Animal Welfare Assurance filed with the National Institutes of Health. Protocols were reviewed and approved by Absorption Systems’ Institutional Animal Care and Use Committee (IACUC) prior to the initiation of procedures. Treatment of animals was in accordance with conditions specified in the Guide for Care and Use of Laboratory Animals (NRC, 2011, National Academy Press). Animals were anesthetized with intramuscular ketamine hydrochloride (15-20 mg/kg) and xylazine (5 mg/kg) prior to test article injection or vascular leakage induction. The eye area was surgically prepped with 5% betadine and rinsing with balanced salt solution, followed by administration of 1–2 drops of topical proparacaine hydrochloride (0.5%). […] Test articles (27 G × 6 mm, 30 G × 6 mm, and 32 G × 6 mm Dex-TEG-Dex extruded rods, or Ozurdex®) were injected intravitreally in Dutch Belted rabbits (male, 1.84–2.49 kg, 5–6 months) on Day 0 and vascular leakage was induced by an intravitreal injection of VEGF (500 ng/eye) at acute and chronic timepoints (1 week, 2.5, 4.5, 6, 9, 12, and/or 18 months) post-implantation. Post-injection analgesia was provided by 0.02-0.05 mg/kg IM/SC buprenorphine. Negative control rabbits received a sham injection while positive control rabbits received a 2 mg solution dose of triamcinolone acetonide (Kenalog-40). Ophthalmic exams, including fundus microscopy and slit lamp microscopy, were carried out over the 3 days post-VEGF induction and vascular leakage was measured by fluorescein angiography on the third day post-VEGF induction. Eyes were graded based on fundus and fluorescein angiography images using a scoring system as follows[76]: 0 – major vessels straight, some tortuosity of smaller vessels, no vessel dilation; 1 – increased tortuosity of major vessels and/or some vessel dilation; 2 – leakage between major vessels, significant vessel dilation; 3 – leakage between major and minor vessels, minor vessels still visible; and 4 – leakage between major and minor vessels, minor vessels poorly/not visible.

[4] = Composition of pellets as made and after release; type: physicochemical; conditions: Supp Fig 5
Procedure: Release studies were carried out using different media, including PBS (pH 7.4, Gibco), 100% FBS (Sigma, F1051), 1% FBS in PBS pH 7.4, and 3.6% BSA (Sigma, A7906) in PBS (pH 7.4, Gibco). Sink conditions were maintained across all of the in vitro release studies through frequent buffer changes, ensuring that the released drug concentration was always at least five times lower than the solubility limit of the drug in the release buffer being used in order to avoid changes in release kinetics caused by drug levels approaching their saturation limit. Samples were incubated in release medium at 37 °C under constant agitation on an orbital shaker at 115 rpm (VWR). At designated timepoints, sampling was performed by complete removal of medium and replenishment with fresh buffer. Sampling timepoints included 24 h and then every 3–4 days thereafter. For PBS release conditions, samples were analyzed directly. For samples with protein (100% FBS, 1% FBS, 3.6% BSA), protein was precipitated by addition of acetonitrile. Samples were vortexed and centrifuged to separate extracted drug from precipitated protein. The supernatant was then analyzed for drug concentration by HPLC.
Supplementary Figure 5 Proportion of dexamethasone in different forms, namely Dex-TEG-Dex, Dex-TEG, and free Dex (Dex – dexamethasone, TEG – triethylene glycol) in heat-molded pellets as-made and […]
the dimer following submersion in release buffer for 14 days. N=4 samples for as made and N=3 samples for 14 days. Data represent the mean ± standard deviation.
(1 picture or pasted object on this page, not shown here)

[5] = Maximum soluble concentration in culture medium (HPLC); type: physicochemical; conditions: plasma or biological fluid, kinetic from ethanol stock, fibroblast growth medium, 1% ethanol, sterile filtered
Procedure: Human dermal fibroblasts were chosen for general cytotoxicity assessment as they are commonly employed in standard cytotoxicity testing outlined in ISO10993 guidelines. […] The resulting solution was sterile filtered (Pall) to remove any non-soluble components and the concentration of Dex-TEG-Dex was confirmed by HPLC (6.7 µg/ml). The […] control was regular culture medium with 1% ethanol, while the negative control was culture medium containing 5% DMSO. Following 24 h exposure to the different test groups, a WST-1 assay was performed. Briefly, WST-1 reagent (Roche) was mixed with growth medium at a 1:10 dilution, added to test groups, and incubated at 37 °C and 5% CO2 for 1 h. Supernatant was transferred to a new well and absorbance was measured at 450 nm. After 24 h exposure to test groups, samples were also visualized following Diff-Quik staining following the manufacturer’s recommended protocol (Siemens). Samples were imaged with a Leica DMIL microscope equipped with a Canon PowerShot S70 camera with ZoomBrowser Ex 5.0 software (Canon, version 5.0.0.142).

[6] = pellets after release in 100% FBS, t=14d

With C[C@@H]1C[C@H]2[C@@H]3CCC4=CC(=O)C=C[C@]4(C)[C@@]3(F)[C@@H](O)C[C@]2(C)[C@@]1(O)C(=O)COC(=O)OCCOCCOCCOC(=O)OCC(=O)[C@@]1(O)[C@H](C)C[C@H]2[C@@H]3CCC4=CC(=O)C=C[C@]4(C)[C@@]3(F)[C@@H](O)C[C@@]21C [Dex-TEG-Dex] the “Flexural Modulus” value [1] was 2.45 GPa and 2.68 GPa and 3.21 GPa and 3.29 GPa and 3.01 GPa, the “t1/2 of solubilized dimer with protease inhibitor” value ([2]; FBS + Pefabloc 1 mg/ml) was 17.5 ± 4.0 h and the “t1/2 of solubilized dimer” value ([2]; FBS, 37 °C) was 1.6 ± 0.3 h. For the same molecule, the “Dex-TEG-Dex” value ([2]; Fig 4f/4g, 100% FBS, 0 h) was 8904.60 ng/mL and 12808.33 ng/mL and 10692.90 ng/mL, the “Dex-TEG-Dex” value ([2]; Fig 4f/4g, 100% FBS, 0.5 h) was 7215.95 ng/mL and 9829.58 ng/mL and 8828.65 ng/mL and the “Dex-TEG-Dex” value ([2]; Fig 4f/4g, 100% FBS, 1 h) was 5359.02 ng/mL and 7447.63 ng/mL and 6811.81 ng/mL. For the same molecule, the “Dex-TEG-Dex” value ([2]; Fig 4f/4g, 100% FBS, 2 h) was 2692.08 ng/mL and 4406.52 ng/mL and 3872.43 ng/mL, the “Dex-TEG-Dex” value ([2]; Fig 4f/4g, 100% FBS, 3 h) was 1327.43 ng/mL and 2230.11 ng/mL and 1843.05 ng/mL and the “Dex-TEG-Dex” value ([2]; Fig 4f/4g, 100% FBS, 4 h) was 658.17 ng/mL and 1181.11 ng/mL and 1053.60 ng/mL. For the same molecule, the “Dex-TEG-Dex” value ([2]; Fig 4f, 100% FBS, 24 h) was 0.00 ng/mL, the “Dex-TEG-Dex” value ([2]; Fig 4g, 100% FBS + Pefabloc, 0 h) was 9696.84 ng/mL and 12099.70 ng/mL and 11672.92 ng/mL and the “Dex-TEG-Dex” value ([2]; Fig 4g, 100% FBS + Pefabloc, 0.5 h) was 9639.71 ng/mL and 11685.46 ng/mL and 12342.53 ng/mL. For the same molecule, the “Dex-TEG-Dex” value ([2]; Fig 4g, 100% FBS + Pefabloc, 1 h) was 9646.33 ng/mL and 10767.80 ng/mL and 11272.62 ng/mL, the “Dex-TEG-Dex” value ([2]; Fig 4g, 100% FBS + Pefabloc, 2 h) was 9053.36 ng/mL and 10983.11 ng/mL and 10167.52 ng/mL and the “Dex-TEG-Dex” value ([2]; Fig 4g, 100% FBS + Pefabloc, 3 h) was 9138.02 ng/mL and 9847.00 ng/mL and 8269.83 ng/mL. The “Dex-TEG-Dex” value ([2]; Fig 4g, 100% FBS + Pefabloc, 4 h) was 8469.46 ng/mL and 9930.96 ng/mL and 8280.63 ng/mL, the “Dex-TEG-Dex” value ([2]; Fig 4g, 100% FBS + Pefabloc, 5 h) was 8230.46 ng/mL and 9376.67 ng/mL and 8546.80 ng/mL and the “Dex-TEG-Dex” value ([2]; Fig 4g, 100% FBS + Pefabloc, 6 h) was 7196.79 ng/mL and 9318.49 ng/mL and 8262.17 ng/mL. The “efficacy against VEGF-induced changes” value ([3]; 1 week, Dex-TEG-Dex as 30 G × 6 mm implant) was “efficacious”, the duration of efficacy ([3]; 27 G × 6 mm implant, all time points tested) was no less than 18 months and the “duration of inhibition of VEGF-induced effects” value ([3]; 32 G × 6 mm implant) was no less than 4.5 months. For the same molecule, the “efficacy against VEGF-induced changes” value ([3]; 32 G × 6 mm implant, 6 months) was “reduced efficacy”, the duration of efficacy ([3]; Dex-TEG-Dex as 30 G × 6 mm implant, VEGF challenge) was 9–12 months and the duration of efficacy ([3]; Dex-TEG-Dex as 30 G × 6 mm implant, VEGF challenge, listed as dexamethasone dimer) was greater than 6 months. For the same molecule, the “Proportion of dexamethasone as Dex-TEG-Dex” value ([4]; heat-molded pellets as-made, t=0) was 99.32 and 99.47 and 99.36 and 99.44, the “Proportion of dexamethasone as Dex-TEG” value [4, 6] was 0.046 and 0.04 and the “Proportion of dexamethasone as Dex-TEG-Dex” value [4, 6] was 99.38 and 99.32 and 99.44. It also gave a solubility [5] of 6.7 µg/mL (≈ 6.79 µM).
